According to EP2033635B1, “Use of phenylbutyric acid or salts thereof for treating pruritus” (Asan Laboratories Company (Cayman) Limited, priority 2007, dated 2009):

Columns and labels:
Type in all cases: cell-based
human IL-2 promoter = assay: Chromatin immunoprecipitation (ChIP) assay of transcription-factor binding and acetyl H3 at the IL-2 promoter in Jurkat T cells; settings: 4-phenylbutyrate sodium 1 mM 24 hrs, then ionomycin 1 µM and PMA 10 ng/ml 6 hrs
Method: The induction of multiple cytokine expression depends on the coordinated activation of transcription factors, mostly including NFκB, NF-AT, and AP-1 (Sancho R, et al. J Immunol 172:2341-51, 2004; Li-Weber M, et al. Eur J Immunol 34 :1111-18, 2004). Because induction of cytokines is regulated mainly at the transcriptional level, chromatin immunoprecipitation (ChIP) analysis in Jurkat T cells was performed to determine the binding of NFκB, NF-AT, and AP-1 to IL-2 promoter. Jurkat T cells were nonstimulated or stimulated with ionomycin (1 µM) and PMA (10 ng/ml) for 6 hrs in the absence or presence of pre-incubation of 4-phenylbutyrate sodium (1 mM) for 24 hrs, then formaldehyde crosslinking between protein and DNA and ChIP using anti- NFκB, NF-AT, AP-1, Sp1 or acetyl H3 antibodies (Santa Cruz) were performed. PCR primers were designed to amplify the human IL-2 promoter: F 5'-[…] (-317 to -292 in the IL-2 promoter), R 5'-[…] (+33 to 58). PCR amplifications used a three-step protocol with 90°C (30 s) denaturing temperature, 59°C (45 s) primer annealing temperature, and 72°C (30 s) enzyme reaction temperature for 35 cycles.

Jurkat T cells [1] = assay: Real-time PCR gene expression profiling (RT2 Profiler PCR Array Human Th1-Th2-Th3) in Jurkat T cells stimulated with PMA/ionomycin
Method: FIGs. […] Jurkat T cells were pre-incubated with phenylbutyrate (1 mM) for 24 hrs, and then stimulated with ionomycin (1 µM) and PMA (10 ng/ml) for 6 hrs. Using real-time PCR, the expression of a panel of genes related to helper T cells with or without T-cell stimulation and phenylbutyrate treatment was analyzed. The array includes cytokine genes representative of Th1, Th2 and Th3 cells, gene encoding transcriptional factors regulating the expression of cytokines as well as other markers of CD4+ T lymphocytes, genes involved in immune cell activation in the Th1 and Th2 type immune responses, and genes involved in the antimicrobial humoral response. Results are the mean ± SE of three determinations, expressed as the fold induction (observed experimental relative unit/basal control relative unit in the absence of any stimuli or treatment);
Jurkat T-cells were nonstimulated or stimulated with ionomycin (1 µM) and PMA (10 ng/ml) for 6 hrs in the absence or presence of pre-incubation of 4-phenylbutyrate sodium (1 mM) for 24 hrs, RNA was extracted and then RT-PCR was performed for profiling the expression of 84 genes related to Th1-Th2-Th3 responses shown in the gene table (FIG. 2).

Jurkat T cells [2] = assay: Flow cytometry of cell proliferation, cytotoxicity, apoptosis and cell cycle in Jurkat T cells
Method: Jurkat T cells were treated in the presence of increasing concentrations of 4-phenylbutyrate, ionomycin, and/or phorbol 12-myristate 13-acetate (PMA) for 24-72 hr at 37°C.

[3] = PMA/ionomycin-induced Jurkat T-cell activation, result in words
[4] = phenylbutyrate 1 mM 24 hrs, then ionomycin 1 µM + PMA 10 ng/ml 6 hrs, mitogen stimulation alone 2.68
[5] = 1 mM for 48 hrs, control versus treated cells, flow cytometry

## O=C([O-])CCCc1ccccc1.[Na+] [Phenylbutyrate, 4-phenylbutyrate sodium]
Human IL-2 promoter
  DNA binding of AP-1 to IL-2 promoter: decreases
  DNA binding of NF-AT to IL-2 promoter: decreases
  DNA binding of NFκB to IL-2 promoter: decreases
  chromatin structure, acetyl H3 status: altering acetyl H3 status
Jurkat T cells [1]; [3]
  expression of SOCS1, a suppressor of cytokine signaling: upregulates more expression
  induction of Th1 and Th2 cytokines and related genes, T-cell activation markers, immune response genes: completely suppresses or significantly decreases
Jurkat T cells [1]; [4]
  fold induction of CCL7: 1.04 fold
  fold induction of CCL11: 0.98 fold
  fold induction of CCR5: 0.98 fold
  fold induction of IL6: 0.98 fold
  fold induction of IL6R: 0.98 fold
  fold induction of IL9: 0.98 fold
  fold induction of IL12B: 0.98 fold
  fold induction of IL12RB2: 0.98 fold
  fold induction of IL13: 0.98 fold
  fold induction of IL13RA1: 0.98 fold
  fold induction of IL18: 0.98 fold
  fold induction of MAF: 0.98 fold
  fold induction of SFTPD: 0.98 fold
  fold induction of TLR4: 0.98 fold
Jurkat T cells [1]; phenylbutyrate 1 mM 24 hrs, then ionomycin 1 µM + PMA 10 ng/ml 6 hrs, mitogen stimulation alone 3.12
  fold induction of LAT: 1.57 fold
Jurkat T cells [1]; phenylbutyrate 1 mM 24 hrs, then ionomycin 1 µM + PMA 10 ng/ml 6 hrs, mitogen stimulation alone 4.20
  fold induction of CCR2: 0.84 fold
Jurkat T cells [1]; phenylbutyrate 1 mM 24 hrs, then ionomycin 1 µM + PMA 10 ng/ml 6 hrs, mitogen stimulation alone 4.72
  fold induction of JAK2: 2.27 fold
Jurkat T cells [1]; phenylbutyrate 1 mM 24 hrs, then ionomycin 1 µM + PMA 10 ng/ml 6 hrs, mitogen stimulation alone 4.82
  fold induction of SOCS1: 8.59 fold
Jurkat T cells [1]; phenylbutyrate 1 mM 24 hrs, then ionomycin 1 µM + PMA 10 ng/ml 6 hrs, mitogen stimulation alone 5.86
  fold induction of IRF1: 1.7 fold
Jurkat T cells [1]; phenylbutyrate 1 mM 24 hrs, then ionomycin 1 µM + PMA 10 ng/ml 6 hrs, mitogen stimulation alone 7.41
  fold induction of CCR4: 1.93 fold
Jurkat T cells [1]; phenylbutyrate 1 mM 24 hrs, then ionomycin 1 µM + PMA 10 ng/ml 6 hrs, mitogen stimulation alone 7.89
  fold induction of STAT4: 3.32 fold
Jurkat T cells [1]; phenylbutyrate 1 mM 24 hrs, then ionomycin 1 µM + PMA 10 ng/ml 6 hrs, mitogen stimulation alone 11.31
  fold induction of IL1R1: 3.92 fold
Jurkat T cells [1]; phenylbutyrate 1 mM 24 hrs, then ionomycin 1 µM + PMA 10 ng/ml 6 hrs, mitogen stimulation alone 19.97
  fold induction of IL18R1: 0.98 fold
Jurkat T cells [1]; phenylbutyrate 1 mM 24 hrs, then ionomycin 1 µM + PMA 10 ng/ml 6 hrs, mitogen stimulation alone 26.17
  fold induction of IRF4: 16.50 fold
Jurkat T cells [1]; phenylbutyrate 1 mM 24 hrs, then ionomycin 1 µM + PMA 10 ng/ml 6 hrs, mitogen stimulation alone 29.04
  fold induction of TLR6: 10.43 fold
Jurkat T cells [1]; phenylbutyrate 1 mM 24 hrs, then ionomycin 1 µM + PMA 10 ng/ml 6 hrs, mitogen stimulation alone 42.81
  fold induction of IL4R: 9.53 fold
Jurkat T cells [1]; phenylbutyrate 1 mM 24 hrs, then ionomycin 1 µM + PMA 10 ng/ml 6 hrs, mitogen stimulation alone 58.08
  fold induction of BCL3: 19.73 fold
Jurkat T cells [1]; phenylbutyrate 1 mM 24 hrs, then ionomycin 1 µM + PMA 10 ng/ml 6 hrs, mitogen stimulation alone 87.43
  fold induction of CD69: 48.57 fold
Jurkat T cells [1]; phenylbutyrate 1 mM 24 hrs, then ionomycin 1 µM + PMA 10 ng/ml 6 hrs, mitogen stimulation alone 89.26
  fold induction of TNFRSF9: 13.01 fold
Jurkat T cells [1]; phenylbutyrate 1 mM 24 hrs, then ionomycin 1 µM + PMA 10 ng/ml 6 hrs, mitogen stimulation alone 126.24
  fold induction of IFN-gamma: 99.18 fold
Jurkat T cells [1]; phenylbutyrate 1 mM 24 hrs, then ionomycin 1 µM + PMA 10 ng/ml 6 hrs, mitogen stimulation alone 151.17
  fold induction of IL2RA: 64.98 fold
Jurkat T cells [1]; phenylbutyrate 1 mM 24 hrs, then ionomycin 1 µM + PMA 10 ng/ml 6 hrs, mitogen stimulation alone 229.13
  fold induction of CSF2: 88.77 fold
Jurkat T cells [1]; phenylbutyrate 1 mM 24 hrs, then ionomycin 1 µM + PMA 10 ng/ml 6 hrs, mitogen stimulation alone 831.75
  fold induction of IL2: 304.86 fold
Jurkat T cells [2]; [5]
  apoptosis: no significant differences
  cell proliferation: no significant differences
  cytotoxicity: no significant differences
Jurkat T cells [2]; pre-treatment 1 mM for 24 hrs, 48 hrs after stimulation with ionomycin 1 µM plus PMA 10 ng/ml
  entry of the cells into the S phase of the cell cycle: almost completely prevented
